From patent US6541523B2, “Methods for treating or preventing fibromyalgia using very low doses of cyclobenzaprine” (Vela Pharmaceuticals, Inc., priority 1999, dated 2003)
Like-named read-outs stand apart in the source and are kept apart here.

What was measured:
[1] = test system: patients with fibromyalgia
Source text: Quantification of improvement may be measured according to methods known in the art. For example, pain may be measured using tender point count, the McGill Pain Questionnaire, the Arthritis Impact Measurement Scales (AIMS), the Sickness Impact Profile (SIP), the Health Assessment Questionnaire (HAQ) functional disability index, the Symptom Checklist-90R, and dolorimeter scores. […] (Alarcon, Graciela, et al., “Advances in the Treatment of Fibromyalgia: Current Status and Future Directions”, Am. J. Med. Sciences, 315:397-404 (1998).)
(§1) The quality of sleep (“sleep disturbance”) may be determined, inter alia, by asking the patient if he/she awakened tired or nonrefreshed “never,” “seldom,” “often or usually,” or “always.” Replies of “often or usually” or “always” may be scored as positive and other replies as negative. Patients reports of well-being or relief from “zombie” or “spacey” feelings, feelings of being “run down,” and having difficultly concentrating during waking hours are indications of better quality of sleep or deep, refreshing sleep.
They were on a dose of ⅓ tablet of cyclobenzaprine (3 33 mg).
patient four, a person homemaker, presented with complaints of chest pain previously attributed to their known history of mitral valve prolapse. They also complained of a several year history of fatigue.
patient two, a active grandparent, presented with the new onset of cervical and lumbar muscular pains associated with poor quality sleep and fatigue. The patient was diagnosed with fibromyalgia.
patient seven, a person homemaker, presented with complaints of diffuse pain and fatigue.
patient three, a person homemaker, presented with complaints of right trapezius spasm. They had recently been started on paroxetine, 20 mg p.o. qd for mild depression, and had also noted disrupted sleep quality with frequent awakening with resultant fatigue and daytime somnolence. […] They were diagnosed with fibromyalgia and was begun on cyclobenzaprine 10 mg p.o. qHS for the diagnosis of fibromyalgia and possible sleep disturbance due to the SSRI paroxetine.
patient one, a person homemaker, had recently given birth to a healthy baby, and in during the later stages of pregnancy and in the post-partem period noted fatigue and exhaustion associated with multiple areas of muscular soreness.
patient six, a executive, presented with complaints of “burning pains” in their muscles, associated with sleep disturbance with frequent awakening and resultant fatigue.
patient five, a executive, had been tried on multiple medications by a “fibromyalgia specialist,” who according to the patient had performed over $2,000 in blood tests, diagnosing “yeast infection in the blood” and multiple allergies.

[2] = test system: patients with sleep disturbance; conditions: single patient report
Source text: as §1

[3] = test system: cyclobenzaprine-treated patients; conditions: cited from earlier work
[4] = test system: fibromyalgia patients; conditions: twenty to forty mgs per day; twelve fibromyalgia patients; cited from earlier work
[5] = test system: fibromyalgia patients; conditions: cited from earlier work
[6] = test system: fibromyalgia patients; conditions: five mgs per day; some fibromyalgia patients; anecdotal; cited from earlier work
[7] = ⅓ tablet (3 33 mg), single patient report

Row | Compound | Symptom response ([1]; 10 mg p.o. qHS, single patient report) | Course after stopping cyclobenzaprine ([1]; discontinuation of ¼ tablet (2.5 mg), single patient report) | Effect on sleep disturbance, fatigue and diffuse pain ([1]; less than 5 mg/day qHS, applicant's summary for many patients) | Symptom response ([1]; ½ tablet (5 mg) p.o. qHS, single patient report) | Side effects [1, 7] | Symptom response [1, 7] | Sleep and energy response ([2]; ¼ to ½ tablet (2.5-5 mg)) | Side effects ([2]; ½ tablet (5 mg)) | Less common side effects ([3]; cyclobenzaprine treatment) | Organ toxicity ([3]; recommended doses) | Toxic effects on overdose ([3]; three individuals who ingested between 260 to 900 mg) | Alpha non-REM EEG sleep anomaly and mood ratings [4] | Pain (tender point count and dolorimetry) [4] | Difference in efficacy between regimens ([5]; 10 mg/day vs 30 mg/day) | Tender points, quality of sleep and other symptoms ([5]; 10 mg/day) | Tender points, quality of sleep and other symptoms ([5]; 30 mg/day) | Response to treatment [6] | Response to trial of nortriptyline ([1]; fibromyalgia patient not helped by cyclobenzaprine 2.5 mg, dose not given)
1 | CN(C)CCC=C1c2ccccc2C=Cc2ccccc21 [cyclobenzaprine, 3-(5H-Dibenzo[a,d]cyclohepten-5-ylidene)-N,N-dimethyl-1-propanamine] | helping their muscular pains | immediate return of all of their previous symptoms | surprisingly effective at treating the sleep disturbance | symptoms abated | no adverse effects | alleviated their symptoms | improved sleep and increased energy, with resolution of their daytime somnolence | “grogginess” during the day | nausea, tiredness, constipation, blurred vision, nervousness, confusion, abdominal pain and discomfort | No indications of organ toxicity | Toxic effects were reported | did not favorably change | did not experience decreased pain | no significant difference in efficacy | decline in the number of tender points and improvement in the quality of sleep, anxiety, fatigue, irritable bowel syndrome and stiffness | decline in the number of tender points and improvement in the quality of sleep, anxiety, fatigue, irritable bowel syndrome and stiffness | responded “favorably” | –
2 | CNCCC=C1c2ccccc2CCc2ccccc21 [nortriptyline] | – | – | – | – | – | – | – | – | – | – | – | – | – | – | – | – | – | did well
